± gives the standard deviation of the averaged measurements.
Experiments:
Experiment in all cases: drug sensitivity score (DSS) (DSS score); higher = more sensitive (stronger growth inhibition); extreme values may be limits of the assay
[1] = test system: Ba/F3 P210-BCR-ABL1 RUNX1-/- (mouse)
Outline: (§1)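 Each value is a drug sensitivity score derived from CellTiter-Glo luminescence scaled between vehicle and positive-control wells. Mouse Ba/F3 clones, CRISPR/Cas9-edited at a target exon or edited controls, were seeded at 10,000 cells per well in RPMI with 10% FBS and treated for 72 h at 37 °C and 5% CO2. Compounds from a 528-compound library were tested at five concentrations over a 10,000-fold range, and scores were averaged over two replicates.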

[2] = test system: Ba/F3 P210-BCR-ABL1 RUNX1-/mut (mouse)
Outline: as §1

[3] = test system: Ba/F3 P210-BCR-ABL1 RUNX1wt/wt control (mouse)
Outline: as §1

| SMILES | drug sensitivity score [1] | drug sensitivity score [2] | drug sensitivity score [3] |
| --- | --- | --- | --- |
| N.N.[Cl][Pt][Cl] [Cisplatin] | 6.3 ± 1.4 | 7 ± 1.6 | 5.5 ± 0.14 |
| CCN(CC)CCOc1ccc(C(=C(Cl)c2ccccc2)c2ccccc2)cc1 [Clomifene] | 6.5 ± 0.28 | 8 ± 1.3 | 6.35 ± 0.49 |
| O=C(c1ccc(F)c(F)c1Nc1ccc(I)cc1F)N1CC(O)([C@@H]2CCCCN2)C1 [Cobimetinib] | 9.05 ± 0.78 | 4.6 ± 1.8 | 0 |
| COc1c(OCCCN2CCOCC2)ccc2c1N=C(NC(=O)c1cnc(N)nc1)N1CCN=C21 [Copanlisib] | 8.65 ± 1.5 | 6.1 ± 3.4 | 1.4 ± 0.99 |
| CC1(COc2ccc3c(c2)ncn3-c2ccc3cccc(N4CCC(N)CC4)c3n2)COC1 [Crenolanib] | 12.8 ± 0.49 | 10.9 ± 1.5 | 6.25 ± 0.49 |
| Nc1ccn([C@@H]2O[C@H](CO)[C@@H](O)[C@@H]2O)c(=O)n1 [Cytarabine] | 12.25 ± 0.071 | 8.25 ± 4 | 6.25 ± 0.071 |
| CC(C)(C)c1nc(-c2cccc(NS(=O)(=O)c3c(F)cccc3F)c2F)c(-c2ccnc(N)n2)s1 [Dabrafenib] | 2.6 ± 0.85 | 0.05 ± 0.071 | 2.2 ± 0.42 |
| COc1cc2ncnc(Nc3ccc(F)c(Cl)c3)c2cc1NC(=O)/C=C/CN1CCCCC1 [Dacomitinib] | 1.05 ± 1.5 | 1.8 ± 2.3 | 0.25 ± 0.35 |
| Cn1c(=O)n(-c2ccc(C(C)(C)C#N)cc2)c2c3cc(-c4cnc5ccccc5c4)ccc3ncc21 [Dactolisib] | 16.9 ± 0.42 | 18.3 ± 0.28 | 14.4 ± 0.35 |
| O=C(/C=C/c1cccnc1)NCCCCC1CCN(C(=O)c2ccccc2)CC1 [Daporinad] | 19.4 ± 0.35 | 20.5 ± 4.7 | 15.9 ± 0.71 |
| CCN(CC)CCN(Cc1ccc(-c2ccc(C(F)(F)F)cc2)cc1)C(=O)Cn1c(SCc2ccc(F)cc2)nc(=O)c2c1CCC2 [Darapladib] | 1.9 ± 0.14 | 2.65 ± 3.2 | 0 |
| CC[C@@](C)(Nc1ccnc(-c2c[nH]c3ncccc23)n1)C(=O)NCC(F)(F)F [Decernotinib] | 0.5 ± 0.28 | 0 | 0.55 ± 0.21 |
| CC(=O)N(O)CCCCCNC(=O)CCC(=O)N(O)CCCCCNC(=O)CCC(=O)N(O)CCCCCN [Deferoxamine] | 6.9 ± 0.71 | 6.6 ± 1.4 | 0.9 ± 0.99 |
| C[C@H]1O[C@@H](O[C@H]2[C@@H](O)C[C@H](O[C@H]3[C@@H](O)C[C@H](O[C@H]4CC[C@@]5(C)[C@H](CC[C@@H]6[C@@H]5C[C@@H](O)[C@]5(C)[C@@H](C7=CC(=O)OC7)CC[C@]65O)C4)O[C@@H]3C)O[C@@H]2C)C[C@H](O)[C@@H]1O [Digoxin] | 0 | 0.05 ± 0.071 | 0 |
| CCc1cnn2c(NCc3ccc[n+]([O-])c3)cc(N3CCCC[C@H]3CCO)nc12 [Dinaciclib] | 19.6 ± 2.3 | 19.9 ± 0.35 | 18.6 ± 0.78 |
| Cc1ccc(-n2nc(C(C)(C)C)cc2NC(=O)Nc2ccc(OCCN3CCOCC3)c3ccccc23)cc1 [Doramapimod] | 3.9 ± 0.57 | 2.85 ± 1.5 | 0 |
| C[C@H](Nc1ncnc2nc[nH]c12)c1cc2cccc(Cl)c2c(=O)n1-c1ccccc1 [Duvelisib] | 2.6 ± 0.99 | 2.35 ± 3.3 | 0 |

| SMILES | drug sensitivity score [1] | drug sensitivity score [2] | drug sensitivity score [3] |
| --- | --- | --- | --- |
| Cc1ccc(NS(=O)(=O)c2cccc(C#N)c2)c2[nH]cc(C#N)c12 [E7820] | 2 ± 0.99 | 5.45 ± 2 | 0.35 ± 0.21 |
| Cc1cc(Nc2cc(N3CCN(C)CC3)nc(/C=C/c3ccccc3)n2)n[nH]1 [ENMD-2076] | 9.4 ± 0.28 | 8.45 ± 0.35 | 5.5 ± 0.85 |
| Cc1cc(C)c(CNC(=O)c2cc(-c3ccc(CN4CCOCC4)cc3)cc3c2cnn3C2CCCC2)c(=O)[nH]1 [EPZ-5687] | 0.5 ± 0.71 | 0.9 ± 1.3 | 0 |
| NC(=O)/C(=C/n1cnc(-c2cc(C(F)(F)F)cc(C(F)(F)F)c2)n1)c1cncnc1 [Eltanexor] | 27.8 ± 0.14 | 27.2 ± 0.35 | 19.8 ± 0.99 |
| CC(C)(O)CNc1nc(Nc2ccnc(C(F)(F)F)c2)nc(-c2cccc(C(F)(F)F)n2)n1 [Enasidenib] | 0.4 ± 0.14 | 0.55 ± 0.78 | 0 |
| COC(=O)N[C@@H](C)CNc1nccc(-c2cn(C(C)C)nc2-c2cc(Cl)cc(NS(C)(=O)=O)c2F)n1 [Encorafenib] | 1.35 ± 0.071 | 2.15 ± 0.64 | 0.05 ± 0.071 |
| C[C@@H]1CN(C(=O)c2ccc(NC(=O)c3cc(O[C@H](C)c4c(Cl)ccc(F)c4Cl)c(N)nn3)cc2)C[C@H](C)N1 [Ensartinib] | 2.15 ± 0.92 | 0.2 ± 0.28 | 0 |
| c1cn2cc(-c3ccc4cn[nH]c4c3)nc(Nc3ccc(N4CCOCC4)cc3)c2n1 [Entospletinib] | 1.95 ± 1.3 | 1.35 ± 1.9 | 0 |
| CN1CCN(c2ccc(C(=O)Nc3n[nH]c4ccc(Cc5cc(F)cc(F)c5)cc34)c(NC3CCOCC3)c2)CC1 [Entrectinib] | 0.25 ± 0.35 | 0.65 ± 0.92 | 0 |
| CNC(=O)c1ccc(N2C(=S)N(c3ccc(C#N)c(C(F)(F)F)c3)C(=O)C2(C)C)cc1F [Enzalutamide] | 1.15 ± 1.6 | 1.05 ± 1.5 | 0.3 ± 0.14 |
| NS(=O)(=O)NCCNc1nonc1/C(=N/O)Nc1ccc(F)c(Br)c1 [Epacadostat] | 1.05 ± 1.2 | 0.7 ± 0.99 | 0 |
| COc1cccc2c1C(=O)c1c(O)c3c(c(O)c1C2=O)C[C@@](O)(C(=O)CO)C[C@@H]3O[C@H]1C[C@H](N)[C@@H](O)[C@H](C)O1 [Epirubicin] | 24.9 ± 0.35 | 18.6 ± 3.5 | 13.1 ± 0.21 |
| CCOc1ccccc1-n1c(C(C)N2CCN(C(=O)COc3ccc(Cl)cc3)CC2)nc2ccccc2c1=O (configuration not stated) [Erastin] | 11.2 ± 1.1 | 8.45 ± 5.9 | 0 |
| COc1cc(OC)cc(N(CCNC(C)C)c2ccc3ncc(-c4cnn(C)c4)nc3c2)c1 [Erdafitinib] | 1.5 ± 0.14 | 0 | 0 |
| C=C1C[C@@H]2CC[C@@]34C[C@H]5O[C@H]6[C@@H](O3)[C@H]3O[C@H](CC[C@@H]3O[C@H]6[C@H]5O4)CC(=O)C[C@@H]3[C@@H](OC)[C@@H](C[C@H](O)CN)O[C@H]3C[C@H]3O[C@@H](CC[C@@H]1O2)C[C@@H](C)C3=C [Eribulin] | 25.9 ± 1.2 | 24.6 ± 0.85 | 17.4 ± 0.14 |
| CCn1c(=O)c(-c2ccc(Cl)cc2Cl)cc2cnc(Nc3ccc(N4CCNCC4)c(F)c3)nc21 [FRAX486] | 23.2 ± 1.2 | 16.4 ± 0.42 | 8.95 ± 0.64 |
| Cc1cnc(Nc2ccc(OCCN3CCCC3)cc2)nc1Nc1cccc(S(=O)(=O)NC(C)(C)C)c1 [Fedratinib] | 11.7 ± 2 | 10.4 ± 2.7 | 5.8 |

— the supplement of paper PMC8024199
